Data on 76 compounds can be found in BindingDB's records for aid1799744 (Csar, 2012).

The assay concerns the target Mitogen-activated protein kinase 1 (Homo sapiens, UniProt P28482). The experiment in a line: Assay 1.

Sequence of Mitogen-activated protein kinase 1 (P28482 whole entry): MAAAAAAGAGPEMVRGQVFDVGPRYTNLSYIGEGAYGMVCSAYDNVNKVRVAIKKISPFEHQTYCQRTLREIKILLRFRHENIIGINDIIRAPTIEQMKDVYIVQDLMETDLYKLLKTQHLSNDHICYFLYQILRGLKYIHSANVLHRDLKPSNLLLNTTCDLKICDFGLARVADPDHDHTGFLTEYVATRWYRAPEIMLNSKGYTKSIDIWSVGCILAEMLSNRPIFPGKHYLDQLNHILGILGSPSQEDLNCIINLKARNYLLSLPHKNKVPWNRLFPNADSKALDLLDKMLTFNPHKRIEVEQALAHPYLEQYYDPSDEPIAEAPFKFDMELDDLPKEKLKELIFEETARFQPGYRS

As to `Nc1ncc(-c2cc(Cl)cc(Cl)c2)c(-c2c[nH]c(C(=O)N[C@H](CO)c3ccccc3)c2)n1` [erk000031], the affinity corresponds to a Ki of 229 nM.
Take `CNc1ncc(C)c(-c2c[nH]c(C(=O)NCc3cccc4ccccc34)c2)n1` [erk000036]: the Ki (commonly the dissociation constant of the complex between target and ligand, obtained from inhibition or displacement) was determined as 58 nM.
`Cc1cnc(N)nc1-c1c[nH]c(C(=O)NCc2cccc3ccccc23)c1` [erk000037]: the Ki came to 603 nM.
In turn, `CCNc1ncc(C)c(-c2c[nH]c(C(=O)NCc3ccc(F)c(F)c3)c2)n1` [erk000038] gave an inhibitory constant (Ki) of 240 nM.
`CCNc1ncc(C)c(-c2c[nH]c(C(=O)NCc3ccccc3C(F)(F)F)c2)n1` [erk000039] came in with a Ki of 4570 nM.
As for `Cc1cnc(Nc2ccccc2)nc1-c1c[nH]c(C(=O)N[C@H](CO)c2ccccc2)c1` [erk000040], the Ki stood at 4 nM.
Regarding `CCNc1ncc(C)c(-c2c[nH]c(C(=O)N[C@H](CO)c3ccccc3)c2)n1` [erk000041], the inhibitory constant (Ki) is 3 nM.
Consider `CNc1ncc(C)c(-c2c[nH]c(C(=O)NCc3cccc(C(F)(F)F)c3)c2)n1` [erk000042], for which the Ki was found to be 468 nM.
The compound `Cc1cnc(N)nc1-c1c[nH]c(C(=O)NCc2cccc(C(F)(F)F)c2)c1` [erk000043] came in with a Ki of 562 nM.
For `CNc1ncc(C)c(-c2c[nH]c(C(=O)NCc3ccccc3)c2)n1` [erk000045] the value was 776 nM.
For the compound `CNc1ncc(C)c(-c2c[nH]c(C(=O)N[C@H](CO)c3ccccc3)c2)n1` [erk000046], the Ki was 59 nM.
As for `CCNc1ncc(C)c(-c2c[nH]c(C(=O)NCc3ccccc3)c2)n1` [erk000047], the affinity corresponds to a Ki of 89 nM.
For `CCNc1ncc(C)c(-c2c[nH]c(C(=O)N[C@@H](CO)c3ccccc3)c2)n1` [erk000048] the value was 12900 nM; for `O=C(NCc1ccc2c(c1)OCO2)c1cc(-c2ccnc(Nc3ccccc3)n2)c[nH]1` [erk000049], 269 nM.
In the case of `CNc1ncc(C)c(-c2c[nH]c(C(=O)NCc3ccc(Cl)cc3Cl)c2)n1` [erk000054] it was 2000 nM; in that of `Cc1cnc(N)nc1-c1c[nH]c(C(=O)NCc2ccc(Cl)cc2Cl)c1` [erk000055], 6760 nM.
In the case of `CNc1ncc(C)c(-c2c[nH]c(C(=O)NCc3ccc(F)c(F)c3)c2)n1` [erk000056], the affinity corresponds to a Ki of 3720 nM.
In the case of `O=C(c1cc(-c2ccnc(Nc3ccccc3)n2)c[nH]1)N1CCc2ccccc2C1` [erk000057] it was 525 nM; in that of `CCNc1ncc(C)c(-c2c[nH]c(C(=O)N3CCc4ccccc4C3)c2)n1` [erk000058], 1590 nM; in that of `CN(Cc1ccccc1)C(=O)c1cc(-c2ccnc(Nc3ccccc3)n2)c[nH]1` [erk000059], 302 nM.
For `CCNc1ncc(CC)c(-c2c[nH]c(C(=O)N[C@H](CO)c3ccccc3)c2)n1` [erk000060] the value was 120 nM; for `CCNc1ncc(C)c(-c2c[nH]c(C(=O)NCc3cccc(C(F)(F)F)c3)c2)n1` [erk000062], 141 nM; for `CCc1cnc(N)nc1-c1c[nH]c(C(=O)N[C@H](CO)c2ccccc2)c1` [erk000065], 288 nM.
The compound `Cc1cnc(N)nc1-c1c[nH]c(C(=O)NCc2ccc3c(c2)OCO3)c1` [erk000066] came in with a Ki of 141 nM.
In turn, `Nc1nccc(-c2c[nH]c(C(=O)N[C@H](CO)c3ccccc3)c2)n1` [erk000067] gave a Ki of 324 nM.
`CCNc1nccc(-c2c[nH]c(C(=O)N[C@H](CO)c3ccccc3)c2)n1` [erk000068] had a Ki of 100 nM.
The compound `CCc1cnc(N)nc1-c1c[nH]c(C(=O)NCc2cccc3ccccc23)c1` [erk000070] displayed a Ki of 1100 nM.
Compound `Clc1ccc(-c2n[nH]c3c2CCCC3)cc1` [erk000071] had a Ki of 5250 nM.
In the case of `Cc1onc(-c2ccccc2)c1-c1ccnc(NC2CCC(O)CC2)n1` (stereo unspecified) [erk000075] it was 1000 nM; in that of `Cc1onc(-c2ccccc2)c1-c1ccn(C(=O)NC(C)C)n1` [erk000088], 15100 nM.
In the case of `Cc1cnc(N)nc1-c1c[nH]c(C(=O)NCc2ccccc2)c1` [erk000103] it was 832 nM; in that of `O=C(NCc1ccncc1)c1cc(-c2n[nH]cc2-c2cc(Cl)cc(Cl)c2)c[nH]1` [erk000114], 79 nM; in that of `O=C(c1cc(-c2n[nH]cc2-c2cc(Cl)cc(Cl)c2)c[nH]1)N1CCOCC1` [erk000124], 813 nM.
As for `Fc1ccc(-c2n[nH]cc2-c2ccnc(NC3CCCCC3)c2)cc1` [erk000125], the affinity, expressed as Ki, was 2570 nM.
The compound `CCN(C)C(=O)c1cc(-c2[nH]ncc2-c2ccc(F)c(Cl)c2)c[nH]1` [erk000142] came in with a Ki of 251 nM.
As for `O=C(N[C@H](CO)c1ccccc1)c1cc(-c2n[nH]cc2-c2cccc(C(F)(F)F)c2)c[nH]1` [erk000184], the affinity, expressed as Ki, was 83 nM.
Compound `CCN(CC)CCOc1ccc(Nc2ncc3cc(-c4c(Cl)cccc4Cl)c(=O)n(C)c3n2)cc1` [erk000225] came in with a Ki of 174 nM.
For `O=C(NCc1ccc2c(c1)CCO2)c1cc(-c2n[nH]cc2-c2cccc(Cl)c2)c[nH]1` [erk000232] the value was 21 nM; for `C[S+]([O-])c1ccc(-c2nc(-c3cccc(I)c3)c(-c3ccncc3)[nH]2)cc1` (stereo unspecified) [erk000253], 12900 nM.
As to `NCc1ccc(-c2cn[nH]c2-c2c[nH]c(C(=O)NCc3ccc4c(c3)CCO4)c2)cc1C(F)(F)F` [erk000282], the Ki was 191 nM.
`CC1CCN(c2nc(Nc3cc(C4CC4)n[nH]3)c3ccccc3n2)CC1` [erk000284]: the Ki came to 65 nM.
In the case of `Cc1cnc(N)nc1-c1c[nH]c(C(=O)NCc2ccc(F)c(F)c2)c1` [erk000286], the inhibition constant (Ki) is 48 nM.
In turn, `Cc1cnc(N)nc1-c1c[nH]c(C(=O)N[C@H](CO)c2ccccc2)c1` [erk000287] showed a Ki of 1910 nM.
The compound `Cc1cnc(N)nc1-c1c[nH]c(C(=O)NCc2ccc(Cl)cc2)c1` [erk000302] showed a Ki of 617 nM.
In the case of `Cc1cnc(N)nc1-c1c[nH]c(C(=O)NCc2cccc(Cl)c2)c1` [erk000303] it was 81 nM; in that of `Cc1cnc(N)nc1-c1c[nH]c(C(=O)NCc2ccc(F)c(Cl)c2)c1` [erk000304], 372 nM.
As for `Cc1cnc(N)nc1-c1c[nH]c(C(=O)N[C@@H](CCO)c2ccccc2)c1` [erk000305], the inhibition constant (Ki) worked out at 1550 nM.
For `Cc1cnc(N)nc1-c1c[nH]c(C(=O)N[C@H](CCO)c2ccccc2)c1` [erk000306] the value was 15800 nM; for `Cc1cnc(NC2CCCCC2)nc1-c1c[nH]c(C(=O)NCc2ccc(F)c(F)c2)c1` [erk000310], 71 nM; for `Cc1cnc(N)nc1-c1c[nH]c(C(=O)NCc2ccccc2F)c1` [erk000311], 4790 nM.
Take `COc1ccccc1CNC(=O)c1cc(-c2nc(N)ncc2C)c[nH]1` [erk000312]: the Ki came out at 2510 nM.
Consider `Cc1cnc(N)nc1-c1cc(C(=O)NCc2ccc(F)c(Cl)c2)n(Cc2ccccc2)c1` [erk000317], for which the Ki is 11000 nM.
`Cc1cnc(N)nc1-c1cc(C(=O)N[C@H](CO)c2ccccc2)n(Cc2ccccc2)c1` [erk000319] displayed a Ki of 3980 nM.
As for `Cc1cnc(N)nc1-c1cc(C(=O)NCc2ccc(F)c(F)c2)n(C)c1` [erk000327], the Ki is 3470 nM.
`CCN(CC)CCNc1ncc(C)c(-c2c[nH]c(C(=O)NCc3ccc(F)c(F)c3)c2)n1` [erk000364] registered a Ki of 3980 nM.
`Cc1cnc(Nc2nc(N3CCCCC3)nc3ccccc23)nc1-c1c[nH]c(C(=O)NCc2ccccc2)c1` [erk000377] came in with a Ki of 2090 nM.
In the case of `CCOC(=O)CNCc1ccc(-c2c[nH]nc2-c2c[nH]c(C(=O)N[C@H](CO)c3ccc(F)c(Cl)c3)c2)cc1Cl` [erk000391] it was 18 nM; in that of `CNc1ncc(C)c(-c2c[nH]c(C(=O)NCc3ccc(F)c(Cl)c3)c2)n1` [erk000393], 282 nM.
For `CNc1ncc(C)c(-c2c[nH]c(C(=O)N[C@@H](CO)c3ccc(F)c(Cl)c3)c2)n1` [erk000396] the value was 68 nM.
Regarding `Cc1cnc(Nc2ccccc2)nc1-c1c[nH]c(C(=O)N[C@@H](CO)c2ccc(F)c(Cl)c2)c1` [erk000397], the inhibition constant (Ki) was determined as 4 nM.
In turn, `Cc1cnc(Nc2ccccc2)nc1-c1c[nH]c(C(=O)NCc2ccc(F)c(Cl)c2)c1` [erk000398] registered a Ki of 25 nM.
For `O=C(N[C@H](CO)c1ccccc1)c1cc(-c2nc(Nc3ccccc3)ncc2C2CC2)c[nH]1` [erk000434] the value was 417 nM; for `Cc1ccc([C@@H](CO)NC(=O)c2cc(-c3nc(Nc4ccccc4)ncc3C)c[nH]2)cc1F` [erk000435], 2 nM.
Take `Cc1ccc([C@@H](CO)NC(=O)c2cc(-c3nc(Nc4cccc(F)c4)ncc3C)c[nH]2)cc1F` [erk000436]: the Ki was 6 nM.
For `Cc1cnc(Nc2cccc(C(F)(F)F)c2)nc1-c1c[nH]c(C(=O)N[C@H](CO)c2ccccc2)c1` [erk000438] the value was 2 nM.
In turn, `Cc1cnc(NCc2ccccc2)nc1-c1c[nH]c(C(=O)N[C@H](CO)c2ccccc2)c1` [erk000439] yielded a Ki of 14 nM.
Consider `Cc1ccc(Nc2ncc(C)c(-c3c[nH]c(C(=O)NCc4cccc(C(F)(F)F)c4)c3)n2)cc1C` [erk000440], for which the Ki was determined as 28 nM.
For `Cc1ccc(Nc2ncc(C)c(-c3c[nH]c(C(=O)N[C@H](CO)c4ccccc4)c3)n2)cc1C` [erk000441] the value was 2 nM; for `Cc1cnc(Nc2ccc(OCc3ccccc3)cc2)nc1-c1c[nH]c(C(=O)N[C@H](CO)c2ccccc2)c1` [erk000442], 3 nM; for `Cc1cnc(NCC(F)(F)F)nc1-c1c[nH]c(C(=O)N[C@H](CO)c2ccccc2)c1` [erk000444], 5 nM.
For the compound `Cc1cnc(N[C@H](CO)c2ccccc2)nc1-c1c[nH]c(C(=O)N[C@H](CO)c2ccccc2)c1` [erk000445], the Ki was determined as 1 nM.
`COc1ccccc1Nc1ncc(C)c(-c2c[nH]c(C(=O)N[C@H](CO)c3ccccc3)c2)n1` [erk000446] registered an inhibitory constant (Ki) of 68 nM.
`Cc1cnc(Nc2ccc(OC(F)(F)F)cc2)nc1-c1c[nH]c(C(=O)N[C@H](CO)c2ccccc2)c1` [erk000447] registered a Ki of 2 nM.
For the compound `Cc1cnc(NCC(C)C)nc1-c1c[nH]c(C(=O)N[C@H](CO)c2ccccc2)c1` [erk000448], the affinity corresponds to a Ki of 3 nM.
`Cc1cnc(NCC2CC2)nc1-c1c[nH]c(C(=O)N[C@H](CO)c2ccccc2)c1` [erk000453] showed a Ki of 5 nM.
Take `CCNc1ncc(C)c(-c2c[nH]c(C(=O)N[C@@H](CCO)c3ccccc3)c2)n1` [erk000459]: the affinity, expressed as Ki, was 501 nM.
